Laboratory results as given in US20110319346A1, “ELECTROSTATIC PROTEIN/GLUCOSINOLATE COMPLEXES” (NESTEC S.A., priority 2009, published 2011).

Assays:
β-lactoglobulin (BLG) = target: T1, β-lactoglobulin (BLG) (Bos taurus, UniProt P02754); test: Binding curve of sinigrin to β-lactoglobulin (ultrafiltration, SEC of free SIN); parameters: species or system bovine; conditions: for number of maximum binding sites (nmax): SIN to BLG, acidic conditions (pH 4.0), 25° C.
T1 construct: The composition in the major whey protein fraction was 89.22% BLG; purchased Davisco Biopure, lot JE 001-3-922
T1 sequence (P02754 17-178): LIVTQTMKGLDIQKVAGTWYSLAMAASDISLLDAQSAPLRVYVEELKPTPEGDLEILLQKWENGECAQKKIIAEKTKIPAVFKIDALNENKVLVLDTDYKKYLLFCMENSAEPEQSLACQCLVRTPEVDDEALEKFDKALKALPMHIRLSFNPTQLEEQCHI
Protocol: β-Lactoglobulin (BLG) powder was dispersed in Millipore® water by stirring at room temperature for 1 hour. The protein powder was purchased from Davisco (Biopure, lot JE 001-3-922). The protein content was 93.5 g/100 g of powder, as determined by Kjeldahl analysis (N×6.38). The composition in the major whey protein fraction was 89.22% BLG, 6.91% […], 3.87% bovine serum albumin, as determined by reversed phase HPLC(RP-HPLC); 0.2% fat, 1.5% ash and 4.9% moisture, as specified by the supplier. The mineral composition was as follows: 0.87% Na^+, <0.004% K^+, <0.04% Cl^−, 0.019% Ca^2+, 0.053% P, 0.002% Mg^2+, as determined by atomic absorption spectroscopy.
Concentration of the BLG in the protein solution was 1 mM (1.84% w/w). It was stored overnight at 4° C. to allow hydration. The next day, the protein dispersion was filtered using a Stericup filtration system (Millipore®) with 0.22 μm GP Express Plus membrane. The filtered dispersion (pH 7.2) was either used directly for sample preparation, or it was previously acidified to pH 4.0 using 1M HCl. The amount of 1M HCl added in the latter case was about 1% of the total volume.
The glucosinolate solution was prepared on the day of the experiment by dissolving sinigrin (SIN) in Millipore® water to obtain a concentration 20 or 40 mM (0.83. or 1.66% w/w). Sinigrin hydrate (allyl glucosinolate) 99%, was purchased from Sigma (lot 1291054). For the experiments under acidic conditions, SIN solution was acidified to pH 4.0. The amount of 1M HCl added in the latter case was about 1% of the total volume. […]
After incubation, 2×1.5 mL of mixtures were centrifuged using Centrisart® I centrifugal ultrafiltration units with cellulose triacetate ultrafilters having molecular weight cut-off of 10 kDa (Sartorious, Germany) in a Sorvall RC 3C PLUS centrifuge with a swing bucket rotor (Thermo, Switzerland), for 30 min at 2900×g. Ultrafiltrates were collected, diluted 10 times in Millipore® water, and then analyzed by size exclusion HPLC (SEC) to determine the amount of free (unbound) SIN in each sample. […]

[1] = Emulsifying properties: 10% oil-in-water emulsions, stability to creaming and flocculation; format: physicochemical; conditions: 10% oil-in-water emulsion, pH 4.0, without or with heat treatment
Protocol: Emulsifying properties of samples at pH 4.0 (prepared as described in example 1) were evaluated by preparing emulsions containing 10% (w/w) of “high oleic” sunflower oil (Oleifico SABO, Manno, Switzerland). Samples with SIN to BLG molar ratio 10 with or without heat treatment were diluted to 0.25 mM BLG and mixed with oil in a Pyrex® tube (D 25 mm, V 35 mL) to a final weight of 20 g. They were pre-homogenized using an Ultra Turrax® T25 equipped with a S25N-10G dispersing head (IKA-Werke, Staufen, Germany) rotating at 16,000 rpm for 1 minute. Homogenization of emulsions was completed using an ultrasonic processor (Hielscher UP400S, power 400 W, frequency 24 kHz) and a sonotrode (diameter 7 mm, approx. length 100 mm, titanium) at room temperature for 75 seconds and 75% amplitude of the ultrasound maximal power. This emulsification time was enough to disperse the oil in small droplets and to avoid excessive heating of the sample. […] Stability of emulsions to creaming and flocculation was followed over 26 days of storage at 4° C.

SMILES: C=CC/C(=N\OS(=O)(=O)[O-])S[C@@H]1O[C@H](CO)[C@@H](O)[C@H](O)[C@H]1O.O.[K+] [SIN, Sinigrin hydrate (allyl glucosinolate)]
- number of maximum binding sites (nmax) (β-lactoglobulin (BLG); with heat treatment (85° C., 15 min)): 8.71
- number of maximum binding sites (nmax) (β-lactoglobulin (BLG); without heat treatment): 15.4
- amount of bound SIN to BLG (β-lactoglobulin (BLG); pH 4.0 compared to 7.2): much higher at pH 4.0 compared to 7.2
- ability to produce a stable oil/water emulsion [1]: not able to produce a stable oil/water emulsion
